Experimental data: patent US9340537B2, “Benzamide derivatives for inhibiting the activity of ABL1, ABL2 and BCR-ABL1” (NOVATIS AG, priority 2012, dated 2016)

Experiments:
ABL1 (64-515) [1] = target: T1, ABL1 (64-515) (Homo sapiens (Human), UniProt P00519); test: Radio ABL1 (64-515) radiometric filter-binding kinase assay; type: biochemical; settings: 20 μM ATP
Procedure: Pre-incubation of enzyme with compounds (when stated) was performed by exposing the enzyme to compounds prior to addition of the substrate mixture (ATP and/or peptide substrate). […] Filter-plates were washed 3× with 0.5% H3PO4, followed by addition of 30 μL scintillation cocktail (Microscint, Perkin Elmer) per well and then analysed in a TopCount NXT scintillation counter (Perkin Elmer). Results were expressed as IC50 values.

ABL1 (64-515) [2] = target: T1, ABL1 (64-515); test: Caliper ABL1 (64-515) microfluidic mobility shift kinase assay; settings: read-out: Caliper ABL1 (64-515) IC50

T1 sequence (P00519 64-515): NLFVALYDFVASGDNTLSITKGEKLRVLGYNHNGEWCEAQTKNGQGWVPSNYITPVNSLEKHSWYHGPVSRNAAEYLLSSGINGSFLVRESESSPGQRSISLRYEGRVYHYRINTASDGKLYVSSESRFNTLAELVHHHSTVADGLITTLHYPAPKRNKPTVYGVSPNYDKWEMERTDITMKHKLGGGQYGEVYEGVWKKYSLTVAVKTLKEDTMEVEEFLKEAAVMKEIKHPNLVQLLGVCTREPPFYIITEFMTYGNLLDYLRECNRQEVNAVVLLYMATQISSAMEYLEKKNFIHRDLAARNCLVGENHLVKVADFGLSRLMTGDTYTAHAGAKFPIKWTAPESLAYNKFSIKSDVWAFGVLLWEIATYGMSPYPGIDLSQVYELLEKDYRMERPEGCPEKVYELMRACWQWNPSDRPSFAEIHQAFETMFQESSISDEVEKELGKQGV

Compound	IC50 (ABL1 (64-515) [1])	IC50 (ABL1 (64-515) [2])
CO[C@H]1CN(c2ccc(C(=O)Nc3ccc(OC(F)(F)F)cc3)cc2-c2cncs2)C[C@@H]1O (relative stereo) [Example 4, 4-(trans-3-Hydroxy-4-methoxypyrrolidin-1-yl)-3-(thiazol-5-yl)-N-(4-(trifluoromethoxy)phenyl)benzamide]	4 nM	4.2 nM
O=C(Nc1ccc(OC(F)(F)F)cc1)c1cnc(N2C[C@H](CO)[C@@H](O)C2)c(-c2cncs2)c1 (relative stereo) [Example 17, 6-(trans-3-Hydroxy-4-(hydroxymethyl)pyrrolidin-1-yl)-5-(thiazol-5-yl)-N-(4-(trifluoromethoxy)phenyl)nicotinamide]	10 nM	1.4 nM
N[C@@H]1CN(c2ncc(C(=O)Nc3ccc(OC(F)(F)Cl)cc3)cc2-c2ccn[nH]2)C[C@H]1F (relative stereo) [Example 52, 6-(trans-3-Amino-4-fluoropyrrolidin-1-yl)-N-(4-(chlorodifluoromethoxy)phenyl)-5-(1H-pyrazol-5-yl)nicotinamide]	3 nM	3.4 nM
O=C(Nc1ccc(OC(F)(F)F)cc1)c1cnc(N2C[C@H](O)[C@@H](F)C2)c(-c2ccn[nH]2)c1 (relative stereo) [Example 74, 6-(trans-3-Fluoro-4-hydroxypyrrolidin-1-yl)-5-(1H-pyrazol-5-yl)-N-(4-(trifluoromethoxy)phenyl)nicotinamide]	–	3.7 nM
CO[C@H]1CN(c2ncc(C(=O)Nc3ccc(OC(F)(F)F)cc3)cc2-c2ccn[nH]2)C[C@@H]1N (relative stereo) [Example 78, 6-(trans-3-Amino-4-methoxypyrrolidin-1-yl)-5-(1H-pyrazol-5-yl)-N-(4-(trifluoromethoxy)phenyl)nicotinamide]	4 nM	3.6 nM
CO[C@H]1CN(c2ncc(C(=O)Nc3ccc(OC(F)(F)Cl)cc3)cc2-c2ccn[nH]2)C[C@@H]1N (relative stereo) [Example 79, 6-(trans-3-Amino-4-methoxypyrrolidin-1-yl)-N-(4-(chlorodifluoromethoxy)phenyl)-5-(1H-pyrazol-5-yl)nicotinamide]	1 nM	0.7 nM
O=C(Nc1ccc(OC(F)(F)F)cc1)c1cnc(N2CC[C@@H](O)C2)c(-c2cnoc2)c1 [Example 8, (R)-6-(3-Hydroxypyrrolidin-1-yl)-5-(isoxazol-4-yl)-N-(4-(trifluoromethoxy)phenyl)nicotinamide]	9 nM	–
O=C(Nc1ccc(OC(F)(F)F)cc1)c1cnc(N2CC[C@@H](O)C2)c(-c2nccs2)c1 [Example 9, (R)-6-(3-Hydroxypyrrolidin-1-yl)-5-(thiazol-2-yl)-N-(4-(trifluoromethoxy)phenyl)nicotinamide]	10 nM	–
Cc1ncc(-c2cc(C(=O)Nc3ccc(OC(F)(F)F)cc3)cnc2N2CC[C@@H](O)C2)s1 [Example 11, (R)-6-(3-Hydroxypyrrolidin-1-yl)-5-(2-methylthiazol-5-yl)-N-(4-(trifluoromethoxy)phenyl)nicotinamide]	< 3 nM	–
O=C(Nc1ccc(OC(F)(F)F)cc1)c1cnc(N2CC[C@@H](O)C2)c(-c2csc(CO)c2)c1 [Example 12, (R)-5-(5-(Hydroxymethyl)thiophen-3-yl)-6-(3-hydroxypyrrolidin-1-yl)-N-(4-(trifluoromethoxy)phenyl)nicotinamide]	< 3 nM	–
O=C(Nc1ccc(OC(F)(F)F)cc1)c1cnc(N2CCCC2)c(-c2cc(CO)n[nH]2)c1 [Example 43, 5-(3-(Hydroxymethyl)-1H-pyrazol-5-yl)-6-(pyrrolidin-1-yl)-N-(4-(trifluoromethoxy)phenyl)nicotinamide]	–	3.3 nM
O=C(Nc1ccc(OC(F)(F)Cl)cc1)c1cnc(N2CCC(F)(F)C2)c(-c2ccn[nH]2)c1 [Example 48, N-(4-(Chlorodifluoromethoxy)phenyl)-6-(3,3-difluoropyrrolidin-1-yl)-5-(1H-pyrazol-5-yl)nicotinamide]	5.5 nM	–
O=C(Nc1ccc(OC(F)(F)Cl)cc1)c1cnc(N2CCC3(CNC3)C2)c(-c2ccn[nH]2)c1 [Example 50, N-(4-(Chlorodifluoromethoxy)phenyl)-5-(1H-pyrazol-5-yl)-6-(2,6-diazaspiro[3.4]octan-6-yl)nicotinamide]	1.3 nM	–
NCC1(O)CCN(c2ncc(C(=O)Nc3ccc(OC(F)(F)Cl)cc3)cc2-c2ccn[nH]2)C1 (stereo not shown) [Example 83, 6-(3-(Aminomethyl)-3-hydroxypyrrolidin-1-yl)-N-(4-(chlorodifluoromethoxy)phenyl)-5-(1H-pyrazol-5-yl)nicotinamide]	–	0.4 nM
O=C(O)CCNc1ncc(C(=O)Nc2ccc(OC(F)(F)Cl)cc2)cc1-c1ccn[nH]1 [Example 94, 3-((5-((4-(Chlorodifluoromethoxy)phenyl)carbamoyl)-3-(1H-pyrazol-5-yl)pyridin-2-yl)amino)propanoic acid]	–	23 nM
O=C(O)CCNc1ncc(C(=O)Nc2ccc(OC(F)(F)F)cc2)cc1-c1ccn[nH]1 [Example 95, 3-((3-(1H-Pyrazol-5-yl)-5-((4-(trifluoromethoxy)phenyl)carbamoyl)pyridin-2-yl)amino)propanoic acid]	–	47 nM
O=C(Nc1ccc(OC(F)(F)Cl)cc1)c1cnc(NCCC(O)C(=O)O)c(-c2ccn[nH]2)c1 (stereo not shown) [Example 96, 4-((5-((4-(Chlorodifluoromethoxy)phenyl)carbamoyl)-3-(1H-pyrazol-5-yl)pyridin-2-yl)amino)-2-hydroxybutanoic acid]	–	5.3 nM
O=C(Nc1ccc(OC(F)(F)Cl)cc1)c1cnc(NCC(O)CCO)c(-c2ccn[nH]2)c1 (stereo not shown) [Example 97, N-(4-(Chlorodifluoromethoxy)phenyl)-6-((2,4-dihydroxybutyl)amino)-5-(1H-pyrazol-5-yl)nicotinamide]	–	5.7 nM
O=C(Nc1ccc(OC(F)(F)Cl)cc1)c1cnc(NC[C@@H](O)CCO)c(-c2ccn[nH]2)c1 [Example 98, (S)—N-(4-(Chlorodifluoromethoxy)phenyl)-6-((2,4-dihydroxybutyl)amino)-5-(1H-pyrazol-5-yl)nicotinamide]	–	5.7 nM
O=C(Nc1ccc(OC(F)(F)Cl)cc1)c1cnc(NC[C@H](O)CCO)c(-c2ccn[nH]2)c1 [Example 99, (R)—N-(4-(Chlorodifluoromethoxy)phenyl)-6-((2,4-dihydroxybutyl)amino)-5-(1H-pyrazol-5-yl)nicotinamide]	–	5.1 nM
O=C(Nc1ccc(OC(F)(F)Cl)cc1)c1cnc(NCCC(O)CO)c(-c2ccn[nH]2)c1 (stereo not shown) [Example 100, N-(4-(Chlorodifluoromethoxy)phenyl)-6-((3,4-dihydroxybutyl)amino)-5-(1H-pyrazol-5-yl)nicotinamide]	–	6.6 nM
O=C(Nc1ccc(OC(F)(F)Cl)cc1)c1cnc(NCC[C@H](O)CO)c(-c2ccn[nH]2)c1 [Example 101, (S)—N-(4-(Chlorodifluoromethoxy)phenyl)-6-((3,4-dihydroxybutyl)amino)-5-(1H-pyrazol-5-yl)nicotinamide]	–	7.8 nM
O=C(Nc1ccc(OC(F)(F)Cl)cc1)c1cnc(NCC[C@@H](O)CO)c(-c2ccn[nH]2)c1 [Example 102, (R)—N-(4-(Chlorodifluoromethoxy)phenyl)-6-((3,4-dihydroxybutyl)amino)-5-(1H-pyrazol-5-yl)nicotinamide]	–	13 nM
